# Test results from patent US20110053900A1, “PROGESTERONE ANTAGONISTS SUCH AS CDB-4124 IN THE TREATMENT OF BREAST CANCER” (Repros Therapeutics inc, priority 2008, published 2011).
# Marks after values point to notes of the source that are not given here.
# Key:
# [1] = system: DMBA-induced tumors of the rat mammary gland; experiment: DMBA-induced breast tumors: tumor number and tumor type at necropsy; type: in vivo; conditions: for ACA + PCA per rat / ACA per rat / FA/AF no. / Incidence of tumors (%) / Incidence of tumors (rats with tumors/rats) / PCA per rat: 28 days
# Experimental: (§1) To induce breast tumors, Sprague-Dawley female rats were given 10 mg/kg body weight of DMBA at 50 days of age. One group of 14 rats (Group 2) received sesame oil at 50 days of age instead of DMBA to serve as the no-DMBA controls. Animals were weighed and palpated weekly along the milk line for any sign of lesions or swellings. Tumor nodules were noted and measured weekly in two dimensions with calipers. When tumors grew to a size of 10-12 mm in any dimension, the individual animal was randomized into one of 14 groups. Tumors appeared as soon as 39 days after oral gavage and as late as 194 days (latter individual not included in study). The mean latency period for tumor appearance was 106±30 days.
# (§2) Animals were treated for 28 days on the following schedule. Group 1 received daily subcutaneous (s.c.) injections of vehicle (10% ethanol in sesame oil). Group 2 (no DMBA control group-no tumors expected) received vehicle on a schedule decided beforehand to simulate initiation of treatment over a three-month time period. […] Groups 5 through 9 received 20 mg/kg, 10 mg/kg, 2 mg/kg, 1 mg/kg and 0.1 mg/kg of CDB-4124, respectively. Groups 10 through 14 mirrored the treatment given 5 through 9 except that 10 mg/kg of micronized progesterone was also added as a component to compositions for injections.
# (§3) Animals were sacrificed 3-5 days after the end of the 28-day treatment period, blood was drawn, and tumors were removed, weighed, measured, inspected, and portions frozen and/or placed in 10% phosphate buffered formalin for histopathology. The tissue samples were cut and stained with hematoxylin and eosin and were evaluated for histopathological classification.
# Histologically, four types of tumors were identified (Table 2): adenocarcinomas (ACAs), papillary carcinomas (PCAs), a fibrosarcoma, and fibroadenomas or adenofibromas (FA or AF), the latter two tumor types were not considered to represent frank malignancies.
# [2] = system: DMBA-induced tumors of the rat mammary gland; experiment: DMBA-induced breast tumors: tumor progression (growth pattern); type: in vivo; conditions: 10 mg/kg
# Experimental: as §1, §2
# In order to evaluate the effects of CDB-4124, RU486 and progesterone on tumor development and progression, growth kinetics and tumor size were monitored during the treatment period. Individual tumors from animals with tumors in the study were measured weekly in two dimensions with calipers. The data is corrected to exclude the non-malignant FA/AF tumor types. Tumors that increased in cross-sectional area by at least 33% over the 28-day inspection period were considered to be growing (FIG. 1, black boxes). Those that decreased by approximately 33% were considered to be regressing (FIG. 1, white boxes). Others were considered to be static (FIG. 1, gray boxes).
# [3] = system: DMBA-induced tumors of the rat mammary gland; experiment: DMBA-induced breast tumors: tumor number, size and tumor burden at necropsy; type: in vivo; conditions: for Tumor Burden / Tumor Weight mean / Tumor Weight median / Number of Tumors: 28 days; for Number of Tumors: FA/AF excluded; for lowering of tumor burden and median tumor sizes: 10 mg/kg, versus control
# Experimental: as §1, §2, §3
# The results in Table 3 are those for ACA, PCA and mixed ACA/PCA, but the FA or AF tumors are excluded.
# [4] = system: rat tumors (proliferation marker Ki-67); experiment: Tumor proliferation by Ki-67 immunohistochemistry; type: in vivo; conditions: 10 mg/kg
# Description: In order to assess the effects of progestins and anti-progestins on cell proliferation, tissue sections derived from 46 individual rat tumors from treated an control animals were examined by measuring expression of the proliferation marker Ki-67 using the Ki-67 antibody (NeoMarkers, Fremont, Calif.) and immunohistochemistry. Despite the reduction in size of many tumors in Groups 3 and 6 following treatment in Groups 3 and 6 making them too small to be re-cut, 7-12 ACAs from Groups 1, 3, 4, 6 and 11 were re-cut. The results of proliferation experiments, in which proliferation was measured as a percentage of cells expressing Ki-67, are summarized in Table 4: […]
# [5] = system: rat tumors; experiment: Apoptosis in tumors; type: in vivo; conditions: 10 mg/kg
# Experimental: Apoptosis was evaluated in the same tumors by an apoptosis hybridization kit (Oncor, Gaithersburg, Md.). The cells in apoptosis were evaluated in the peripheral areas of the tumors and far from necrosis. At least 1,000 cells per tumor section were evaluated.
# [6] = Serum progesterone by ELISA; type: in vivo, rat; conditions: for Serum Progesterone, Before TX (mean): before treatment; for Serum Progesterone, During TX (mean): after 21 days of treatment; for Serum Progesterone, After TX (mean): at sacrifice 2-4 days after the last s.c. injection
# Experimental: (§4) The animals were assessed three times for their levels of progesterone: initially, when they were about to go on treatment; a second time after 21 days of treatment; and finally after treatment at sacrifice which was 2-4 days after the last s.c. injection. All blood samples were taken by heart puncture; serum was prepared and held frozen at −40° C. The levels of the steroid hormones progesterone, cortisol, and corticosterone were determined by ELISA.
# (§5) The concentrations of steroid hormones were determined three times during the study: before the beginning of treatments, after 21 days of treatment and finally after treatment at sacrifice which was 2-4 days after the last s.c. injection. All samples were taken by heart puncture. Serum was obtained and held frozen at −40° C. The levels of steroid hormones were determined by ELISA.
# [7] = Serum cortisol by ELISA; type: in vivo, rat; conditions: 10 mg/kg, 21 days of dosing
# Experimental: as §4, §5
# [8] = system: estrogen receptor (ER); experiment: Expression of estrogen receptor in tumors (IHC); type: in vivo, rat; conditions: 10 mg/kg
# Experimental: The tumors that were evaluated for proliferation and apoptosis were also assessed for expression of estrogen and progesterone receptors by immunohistochemistry (IHC). The percentage of cells positive for ER and PR was determined and analyzed. Tumors were grouped into four different categories: tumors with 0% of cells expressing ER, tumors with 10% of cells expressing ER, tumors with 15 to 30% of cells expressing ER and tumors with 30-50% of cells expressing ER. In general, untreated tumors consistently expressed ER. Out of 12 tumors analyzed, all 12 expressed ER. Four out of these 12 tumors contained 30-50% ER-positive cells.
compound,measurement,setting,value
"COCC(=O)[C@@]1(OC(C)=O)CC[C@H]2[C@@H]3CCC4=CC(=O)CCC4=C3[C@@H](c3ccc(N(C)C)cc3)C[C@@]21C [CDB-4124, 21-methoxy-17α-acetoxy-11β-(4 N,N-dimethylaminophenyl)-19-norpregna-4,9-diene-3,20-dione]",ACA + PCA per rat,[1]; 0.1 mg/kg s.c. daily,2.25
same,ACA per rat,[1]; 0.1 mg/kg s.c. daily,1.17
same,FA/AF no.,[1]; 0.1 mg/kg s.c. daily,3
same,Incidence of tumors (%),[1]; 0.1 mg/kg s.c. daily,(100) %
same,Incidence of tumors (rats with tumors/rats),[1]; 0.1 mg/kg s.c. daily,12/12
same,PCA per rat,[1]; 0.1 mg/kg s.c. daily,0.83
same,ACA + PCA per rat,[1]; 1 mg/kg s.c. daily,1.78
same,ACA per rat,[1]; 1 mg/kg s.c. daily,1.67
same,FA/AF no.,[1]; 1 mg/kg s.c. daily,2
same,Incidence of tumors (%),[1]; 1 mg/kg s.c. daily,(82) %
same,Incidence of tumors (rats with tumors/rats),[1]; 1 mg/kg s.c. daily,9/11
same,PCA per rat,[1]; 1 mg/kg s.c. daily,0.11
same,ACA + PCA per rat,[1]; 2 mg/kg s.c. daily,1.55
same,ACA per rat,[1]; 2 mg/kg s.c. daily,1.45
same,FA/AF no.,[1]; 2 mg/kg s.c. daily,2
same,Incidence of tumors (%),[1]; 2 mg/kg s.c. daily,(92) %
same,Incidence of tumors (rats with tumors/rats),[1]; 2 mg/kg s.c. daily,11/12
same,PCA per rat,[1]; 2 mg/kg s.c. daily,0.09
same,ACA + PCA per rat,[1]; 10 mg/kg s.c. daily,1.70
same,ACA per rat,[1]; 10 mg/kg s.c. daily,1.5
same,FA/AF no.,[1]; 10 mg/kg s.c. daily,1
same,Incidence of tumors (%),[1]; 10 mg/kg s.c. daily,(91) %
same,Incidence of tumors (rats with tumors/rats),[1]; 10 mg/kg s.c. daily,10/11
same,PCA per rat,[1]; 10 mg/kg s.c. daily,0.2
same,ACA + PCA per rat,[1]; 20 mg/kg s.c. daily,1.38
same,ACA per rat,[1]; 20 mg/kg s.c. daily,1.31
same,FA/AF no.,[1]; 20 mg/kg s.c. daily,3
same,Incidence of tumors (%),[1]; 20 mg/kg s.c. daily,(100) %
same,Incidence of tumors (rats with tumors/rats),[1]; 20 mg/kg s.c. daily,13/13
same,PCA per rat,[1]; 20 mg/kg s.c. daily,0.08
same,average multiplicity across the highest four treatment groups,"[1]; 20, 10, 2, 1 mg/kg/day",1.58 tumors per rat
same,proportion of tumors regressing,[2]; decrease of cross-sectional area by about 33% over 28 days,70%
same,Tumor Burden,[3]; 0.1 mg/kg s.c. daily,5.1 g/rat
same,Tumor Weight mean,[3]; 0.1 mg/kg s.c. daily,2.26 g
same,Tumor Weight median,[3]; 0.1 mg/kg s.c. daily,0.17 g
same,Number of Tumors,[3]; 0.1 mg/kg s.c. daily,29
same,Tumor Burden,[3]; 1 mg/kg s.c. daily,0.94 g/rat
same,Tumor Weight mean,[3]; 1 mg/kg s.c. daily,0.53 g
same,Tumor Weight median,[3]; 1 mg/kg s.c. daily,0.17 g
same,Number of Tumors,[3]; 1 mg/kg s.c. daily,16
same,Tumor Burden,[3]; 2 mg/kg s.c. daily,4.61 g/rat
same,Tumor Weight mean,[3]; 2 mg/kg s.c. daily,2.98 g
same,Tumor Weight median,[3]; 2 mg/kg s.c. daily,0.09 g
same,Number of Tumors,[3]; 2 mg/kg s.c. daily,17
same,Tumor Burden,[3]; 10 mg/kg s.c. daily,0.48 g/rat
same,Tumor Weight mean,[3]; 10 mg/kg s.c. daily,0.26 g
same,Tumor Weight median,[3]; 10 mg/kg s.c. daily,0.075 g
same,Number of Tumors,[3]; 10 mg/kg s.c. daily,18
same,lowering of tumor burden and median tumor sizes,[3],10 fold
same,Tumor Burden,[3]; 20 mg/kg s.c. daily,4.71 g/rat
same,Tumor Weight mean,[3]; 20 mg/kg s.c. daily,3.4 g
same,Tumor Weight median,[3]; 20 mg/kg s.c. daily,0.125 g
same,Number of Tumors,[3]; 20 mg/kg s.c. daily,20
same,"Proliferating tumor cells by Ki-67, % cells positive",[4],5.1 ± 4.2%
same,"Apoptosis, % cells positive",[5],3.84 ± 3.10%
same,"Serum Progesterone, Before TX (mean)",[6]; 0.1 mg/kg group,54 ng/mL
same,"Serum Progesterone, During TX (mean)",[6]; 0.1 mg/kg,53 ng/mL
same,"Serum Progesterone, After TX (mean)",[6]; 0.1 mg/kg,53 ng/mL
same,"Serum Progesterone, Before TX (mean)",[6]; 1 mg/kg group,64 ng/mL
same,"Serum Progesterone, During TX (mean)",[6]; 1 mg/kg,47 ng/mL
same,"Serum Progesterone, After TX (mean)",[6]; 1 mg/kg,42 ng/mL
same,"Serum Progesterone, Before TX (mean)",[6]; 2 mg/kg group,59 ng/mL
same,"Serum Progesterone, During TX (mean)",[6]; 2 mg/kg,74* ng/ml
same,"Serum Progesterone, After TX (mean)",[6]; 2 mg/kg,56 ng/mL
same,"Serum Progesterone, Before TX (mean)",[6]; 10 mg/kg group,52 ng/mL
same,"Serum Progesterone, During TX (mean)",[6]; 10 mg/kg,77* ng/ml
same,"Serum Progesterone, After TX (mean)",[6]; 10 mg/kg,43 ng/mL
same,"Serum Progesterone, Before TX (mean)",[6]; 20 mg/kg group,61 ng/mL
same,"Serum Progesterone, During TX (mean)",[6]; 20 mg/kg,96* ng/ml
same,"Serum Progesterone, After TX (mean)",[6]; 20 mg/kg,58 ng/mL
same,serum cortisol versus control group (in words),[7],significantly higher levels of serum cortisol
"CC#C[C@]1(O)CC[C@H]2[C@@H]3CCC4=CC(=O)CCC4=C3[C@@H](c3ccc(N(C)C)cc3)C[C@@]21C [RU 486, mifepristone, reference compound]",ACA + PCA per rat,[1]; 10 mg/kg s.c. daily,2.00
same,ACA per rat,[1]; 10 mg/kg s.c. daily,2.08
same,FA/AF no.,[1]; 10 mg/kg s.c. daily,1
same,Incidence of tumors (%),[1]; 10 mg/kg s.c. daily,(93) %
same,Incidence of tumors (rats with tumors/rats),[1]; 10 mg/kg s.c. daily,13/14
same,PCA per rat,[1]; 10 mg/kg s.c. daily,0.08
same,effect on tumor growth pattern (in words),[2]; compared to the controls,apparent increase in the proportion of regressing tumors
same,Tumor Burden,[3]; 10 mg/kg s.c. daily,2.47 g/rat
same,Tumor Weight mean,[3]; 10 mg/kg s.c. daily,1.19 g
same,Tumor Weight median,[3]; 10 mg/kg s.c. daily,0.16 g
same,Number of Tumors,[3]; 10 mg/kg s.c. daily,27
same,lowering of tumor burden and median tumor sizes,[3],5 fold
same,"Proliferating tumor cells by Ki-67, % cells positive",[4],12.9 ± 7.0%
same,"Apoptosis, % cells positive",[5],3.34 ± 2.57%
same,number of cells expressing ER in tumors (in words),[8],lowered the number of cells that express ERs
same,"Serum Progesterone, Before TX (mean)",[6]; 10 mg/kg group,58 ng/mL
same,"Serum Progesterone, During TX (mean)",[6]; 10 mg/kg,72* ng/ml
same,"Serum Progesterone, After TX (mean)",[6]; 10 mg/kg,52 ng/mL
same,serum cortisol versus control group (in words),[7],no significant difference in the levels of cortisol
